Among the test systems are M19-MEL; SNB-78; XF498; DMS-273; LXFL 529; DMS-114; HOP-18; KM-20L2; RXF 631.
What all share (assay): NCI anticancer screen, dose series, 48 h

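96-well plates; 48 h exposure; 5 concentrations. Endpoints by linear interpolation between flanking doses. Not reached: highest tested concentration assigned. The concentration for 50% growth inhibition is given as GI50.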 Activity calls are given as the source filed them. Cut-off read from the data, not from the text of the source: active = GI50 up to about 1.1 µM and inactive = higher.

As for `N/C(=N\O)N/N=C/c1ccc(C(F)(F)F)cc1`, the GI50 in the assay on M19-MEL is 35.2 µM (inactive); with SNB-78, 39.4 µM (inactive); in the assay on XF498, 13.8 µM (inactive); in the assay on DMS-273, 16.6 µM (inactive); in the assay with LXFL 529, 10.9 µM (inactive); in the assay with DMS-114, 18.4 µM (inactive).

For `CC(C)CCCCCCCCCCCCC(=O)NCC(=O)NC1C(O)C(O)C(Nc2[nH]cnc3ncnc2-3)OC1C(O)CO` (stereo unspecified), the GI50 in the assay with M19-MEL is 0.000211 µM (active); in the assay with SNB-78, 0.000148 µM (active); in the assay on DMS-273 it was 0.000133 µM (active); in the assay on HOP-18, 0.000164 µM (active); in the assay with KM-20L2 it was 0.000166 µM (active); in the assay on DMS-114, 0.000416 µM (active).

`NC1=C(Br)C(=O)c2ncccc2C1=O`: the GI50 with M19-MEL is 0.159 µM (active); with SNB-78, 0.828 µM (active); in the assay with XF498 it was 0.998 µM (active); in the assay on DMS-273 it was 0.352 µM (active); in the assay on KM-20L2 it was 1.86 µM (inactive); with RXF 631, 1.79 µM (inactive). For the same molecule, the GI50 in the assay with LXFL 529 is 0.321 µM (active); with DMS-114 it was 0.16 µM (active).

For the molecule `C[N+](C)(C)Cc1c(CC#N)[nH]c2ccccc12`, the GI50 in the assay on M19-MEL, with XF498, in the assay on DMS-273, with KM-20L2, in the assay with LXFL 529 and in the assay on DMS-114 was > 100 µM (inactive) throughout.

As to `COC1OC(CO)C(O)C(O)C1Br` (stereo unspecified), the GI50 in the assay on M19-MEL, in the assay with SNB-78, in the assay on XF498, with DMS-273, in the assay on HOP-18 and in the assay with KM-20L2 was > 100 µM (inactive) in each case. For the same molecule, the GI50 in the assay with RXF 631 and in the assay on LXFL 529 was > 100 µM (inactive) throughout.

In the case of `NC(=O)CCC(NC(=O)Cc1ccccc1)C(=O)O.NC(CCC(=O)NC(=O)Cc1ccccc1)C(=O)O` (stereo unspecified), the GI50 in the assay on M19-MEL, with HOP-18, in the assay on KM-20L2, in the assay with LXFL 529 and in the assay with DMS-114 was > 8130 µM (inactive) throughout.

Take `Cn1c2ccccc2n2c3nc4ccccc4nc3c(C#N)c12`: the GI50 with M19-MEL was < 0.01 µM (active); in the assay with XF498, > 100 µM (inactive); with DMS-273, > 100 µM (inactive); in the assay with HOP-18, > 100 µM (inactive); in the assay on LXFL 529, > 100 µM (inactive); in the assay on DMS-114, > 100 µM (inactive).

Regarding `COc1ccc2c3c(c(C(=O)c4ccccc4)oc13)CCC2`, the GI50 in the assay on M19-MEL, in the assay with SNB-78, with XF498, in the assay with DMS-273, in the assay on HOP-18 and with KM-20L2 was > 100 µM (inactive) throughout. In addition, the GI50 with RXF 631, in the assay on LXFL 529 and in the assay with DMS-114 was > 100 µM (inactive) each time.

Turning to `Cn1c(C2CC(C)(C)c3c2c2ccccc2n3C)cc2ccccc21` (stereo unspecified), the GI50 in the assay on M19-MEL is > 304 µM (inactive); with XF498, 115 µM (inactive); with DMS-273, > 304 µM (inactive); in the assay on KM-20L2 it was > 304 µM (inactive); in the assay on LXFL 529, > 304 µM (inactive); in the assay on DMS-114, 138 µM (inactive).

On to `COc1ccc2c3c([nH]c2c1[N+](=O)[O-])C(C)N(Cc1ccccc1)CC3` (stereo unspecified), for which the GI50 in the assay on SNB-78 was 3.59 µM (inactive); in the assay on DMS-273, 1.04 µM (active); in the assay on KM-20L2, 3.78 µM (inactive); in the assay on LXFL 529, 5.07 µM (inactive); in the assay on DMS-114 it was 3.39 µM (inactive).

For `CC(=O)n1ccc2c(Cl)ncnc21`, the GI50 with M19-MEL, in the assay with SNB-78, in the assay with DMS-273, in the assay on KM-20L2, in the assay on RXF 631 and with LXFL 529 was > 100 µM (inactive) each time. Besides, in the assay on DMS-114, the GI50 was > 100 µM (inactive).

As to `COc1ccc(/C(Cl)=C(\C=N/O)c2ccc(OC)c(OC)c2)cc1OC`, the GI50 in the assay with M19-MEL is > 100 µM (inactive); in the assay with SNB-78 it was 75.5 µM (inactive); in the assay with XF498 it was > 100 µM (inactive); with DMS-273, > 100 µM (inactive); in the assay on HOP-18, > 100 µM (inactive); with KM-20L2, > 100 µM (inactive). For the same molecule, the GI50 with LXFL 529 was > 100 µM (inactive); with DMS-114, 30.8 µM (inactive).

For `Nc1nc(SCCNC(=O)CCc2ccc(O)cc2)nc2c1ncn2C1OC(CO)C(O)C1O` (stereo unspecified), the GI50 with M19-MEL, with SNB-78, in the assay on XF498, in the assay with DMS-273, in the assay on HOP-18 and in the assay with KM-20L2 was > 203 µM (inactive) in each case. Also, in the assay on DMS-114, the GI50 was > 203 µM (inactive).

As for `O=C(c1ccccc1)c1nc2c(Cl)ccc(Cl)c2cc1C(Br)Br`, the GI50 with M19-MEL was 1.83 µM (inactive); with SNB-78, 2.06 µM (inactive); in the assay with XF498, 1.07 µM (active); with DMS-273 it was 1.32 µM (inactive); with HOP-18 it was 1.66 µM (inactive); in the assay on KM-20L2, 1.04 µM (active). Besides, the values for the GI50 with RXF 631, in the assay on LXFL 529 and in the assay on DMS-114 were 1.78 µM (inactive), 0.39 µM (active) and 2.04 µM (inactive), respectively.

For `O=C1C2=C(c3ccccc31)C(c1ccc(F)cc1)N1C(=O)CCSC1=N2` (stereo unspecified), the GI50 in the assay on M19-MEL is > 100 µM (inactive); in the assay on XF498 it was > 100 µM (inactive); in the assay on DMS-273 it was > 100 µM (inactive); with KM-20L2, > 100 µM (inactive); in the assay on LXFL 529, 45.4 µM (inactive); in the assay on DMS-114, 71.6 µM (inactive).

For `COc1c(C)cc2c(c1O)C1NC(C2)[C@H](O)N2C3COC(=O)[C@@]4(CS[C@@H](c5c(OC(C)=O)c(C)c6c(c53)OCO6)C12)NCCC1=C4NC2C=CC=CC12` (stereo partly specified), the GI50 in the assay on M19-MEL, in the assay on XF498, with DMS-273, in the assay on KM-20L2, in the assay on RXF 631 and with LXFL 529 was < 0.01 µM (active) in each case. For the same molecule, the GI50 with DMS-114 is < 0.01 µM (active).

Take `Cc1ccc(S(=O)(=O)N2CCC2c2ccccc2)cc1` (stereo unspecified): the GI50 is > 100 µM (inactive) with M19-MEL; > 100 µM (inactive) in the assay on SNB-78; 74 µM (inactive) in the assay on XF498; 91 µM (inactive) in the assay on DMS-273; 80 µM (inactive) in the assay on HOP-18; > 100 µM (inactive) in the assay on KM-20L2. Besides, the GI50 with DMS-114 was 48.1 µM (inactive).

Turning to `COC1/C=C\C=C(/C)C(=O)NC2=CC(=O)C(N)=C(CC(C)CC(OC)C(O)C(C)C=C(C)C1OC(N)=O)C2=O` (stereo unspecified), the GI50 with M19-MEL was < 0.01 µM (active); with SNB-78, 3.55 µM (inactive); in the assay with XF498, 0.0565 µM (active); in the assay on HOP-18 it was < 0.01 µM (active); with KM-20L2, < 0.01 µM (active); in the assay on RXF 631, 0.303 µM (active). Also, in the assay on LXFL 529, the GI50 was 0.0462 µM (active).

Take `O=c1c2ccccc2c2c3c1cccc3c1cccc3c(=O)c4ccccc4c2c31`: the GI50 in the assay with M19-MEL, in the assay on SNB-78, in the assay with DMS-273, with HOP-18, in the assay with KM-20L2 and in the assay on RXF 631 was > 100 µM (inactive) in each case. The GI50 in the assay with LXFL 529 and with DMS-114 was > 100 µM (inactive) in each case.

Consider `CC/C=C1\N=C(c2ccc(Cl)cc2)OC1=O`, for which the GI50 with M19-MEL, in the assay with SNB-78, in the assay with XF498, with DMS-273, in the assay with KM-20L2 and with LXFL 529 was > 100 µM (inactive) throughout. For the same molecule, the GI50 with DMS-114 was > 100 µM (inactive).

As to `O=C(/C=C/c1c(O)ccc2ccccc12)c1ccc([N+](=O)[O-])cc1`, the GI50 with M19-MEL is 18.5 µM (inactive); in the assay with SNB-78, 21.6 µM (inactive); in the assay on XF498, 27.5 µM (inactive); with DMS-273 it was > 78.7 µM (inactive); with HOP-18 it was 15.2 µM (inactive); in the assay with KM-20L2, > 100 µM (inactive). The GI50 in the assay with LXFL 529 is 16.6 µM (inactive); with DMS-114, 21.3 µM (inactive).

On to `COc1cc2ccnc(C#N)c2cc1OCc1ccccc1`, for which the GI50 is > 100 µM (inactive) in the assay on SNB-78; 53.6 µM (inactive) in the assay with XF498; > 100 µM (inactive) with HOP-18; > 100 µM (inactive) in the assay with KM-20L2; > 100 µM (inactive) with LXFL 529.

As for `COc1ccc(C2=NC(C)(C)CO2)cc1`, the GI50 in the assay with M19-MEL, in the assay on SNB-78, in the assay with XF498, with DMS-273, in the assay on HOP-18 and in the assay on KM-20L2 was > 100 µM (inactive) throughout. The GI50 with DMS-114 was > 100 µM (inactive).

Turning to `CC1CC2CC(=O)CC3(C1)C2CCCN3CCCO` (stereo unspecified), the GI50 in the assay on M19-MEL, in the assay with SNB-78, in the assay with XF498, with DMS-273, in the assay with HOP-18 and in the assay on RXF 631 was > 100 µM (inactive) throughout. Also, the GI50 in the assay with LXFL 529 and in the assay on DMS-114 was > 100 µM (inactive) throughout.
